Experimental data: patent publication US20260216294A1, “BETA 2-ADRENERGIC RECEPTOR AGONISTS FOR TREATMENT OR PREVENTION OF MUSCLE WASTING” (ATROGI AB, priority 2023, published 2026)

How the values were obtained:
[1] = test system: L6-myotubes; assay: Measurement of intracellular cAMP levels in differentiated L6-myotubes (Biological Example 3); assay type: cell-based; details: for Emax at 10 µM: 0.25 h
In short: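 Serum-starved differentiated L6 myotubes stimulated 15 min with test compound at 1×10^−5 M final (isoprenaline as reference) in HBSS with 1% BSA, 5 mM HEPES, 1 mM IBMX, pH 7.4. Cells EtOH-extracted, lysed, and intracellular cAMP measured by AlphaScreen.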

[2] = test system: L6-myotubes; assay: Glucose uptake in differentiated L6-myotubes (Biological Example 2); assay type: cell-based; details: for Emax at 10 µM: read-out: Biological example 2 (GU)
In short: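 Differentiated L6 myotubes were serum-starved overnight in 0.5% fatty-acid-free BSA and then stimulated with compound or isoprenaline at 1×10^−5 M final. After 1 h 40 min cells were washed and re-dosed in glucose-free medium. Twenty minutes later, uptake of 50 nM ^3H-2-deoxyglucose over 10 min was measured by scintillation counting of NaOH lysates.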

[3] = intracellular cAMP, compound at 10 μM relative to isoproterenol at 10 μM
[4] = glucose uptake, compound at 10 μM relative to isoproterenol at 10 μM
[5] = intracellular cAMP in differentiated L6-myotubes, compound at 10 μM, activity relative to isoproterenol at 10 μM
[6] = glucose uptake in differentiated L6-myotubes, compound at 10 μM, activity relative to isoproterenol at 10 μM

Structure (SMILES) | Emax at 10 µM [1, 3] | Emax at 10 µM [2, 4] | Emax at 10 µM [1, 5] | Emax at 10 µM [2, 6] | further results
CCC[C@@H]1CC[C@@H]([C@@H](O)c2cccc(F)c2)N1 [Compound 133, (S)-[(2,5R)-5-propyl-2-pyrrolidinyl](m-fluorophenyl)methanol] | < 25% | 50 to 75% |  |  | 
O[C@@H](CNC[C@H]1CC[C@H](O)CC1)c1cccc(F)c1 [Compound 272, (R)-1-(m-fluorophenyl)-2-({[(1r,4R)-4-hydroxycyclohexyl]methyl}amino)-1-ethanol] |  |  | < 25% | 25 to 50% | 
COC(=O)[C@H]1CC[C@@H](C(C)(C)NC[C@H](O)c2cncc(F)c2)CC1 [Compound 321, (1S,4s)-8-[(R)-2-(5-fluoro-3-pyridyl)-2-hydroxyethylamino]-7-methoxy-p-menthan-7-one] |  |  | < 25% | 50 to 75% | 
CCC[C@H]1CCC[C@H]([C@@H](O)c2cccc(F)c2)N1 [Compound 70] | < 25% | 50 to 75% |  |  | 
CO[C@H]1CC[C@H](CCC23CCC([C@@H](O)c4cccc(F)c4)(CC2)N3)CC1 [Compound 411] |  |  |  |  | Biological example 3 (CAMP) [1, 5]: ++ (if it is between 75 and 50% it is denoted with ++); Biological example 2 (GU) [2, 6]: +++ (If a compound at 10 μM shows activity of more than 75% of that of isoproterenol at 10 μM, the activity is denoted with +++)
CCCCCCCCNCC(O)c1ccc(O)cc1 (centres unmarked) [Compound 18, 1-(p-hydroxyphenyl)-2-(octylamino)-1-ethanol] | < 25% | 25 to 50% |  |  | 
COCC12CCC([C@@H](O)c3cccc(F)c3)(CC1)N2 [Compound 329, (S)-(m-fluorophenyl){4-(methoxymethyl)-7-azabicyclo[[2.2.1]]hept-1-yl}methanol] |  |  | < 25% | 25 to 50% | 
O[C@H](c1cncc(F)c1)C12CCC(COCc3ccc(OC(F)(F)F)cc3)(CC1)N2 [Compound 490] |  |  | < 25% | 50 to 75% | 
CC1(C)CC[C@H]([C@H](O)c2ccccc2Cl)N1 [Compound 152, (R)-[(R)-5,5-dimethyl-2-pyrrolidinyl](o-chlorophenyl)methanol] | < 25% | > 75% |  |  | 
CO[C@H]1CC[C@H](C[C@H]2CC[C@H]([C@@H](O)c3cncc(F)c3)N2)CC1 [Compound 340, (S)-[(2R,5R)-5-{[(1r,4R)-4-methoxycyclohexyl]methyl}-2-pyrrolidinyl](5-fluoro-3-pyridyl)methanol] |  |  | < 25% | 25 to 50% | 
CC(C)(NC[C@H](O)c1cccc(F)c1)[C@H]1CC[C@@H](O)CC1 [Compound 284, (R)-1-(m-fluorophenyl)-2-{1-methyl-1-[(1s,4S)-4-hydroxycyclohexyl]ethylamino}-1-ethanol] |  |  | < 25% | 50 to 75% | 
CC(C)(C[C@H]1CC[C@H](S(N)(=O)=O)CC1)NC[C@H](O)c1cccc(F)c1 [Compound 516, (1R,4r)-4-{2-[(R)-2-(m-fluorophenyl)-2-hydroxyethylamino]-2-methylpropyl} cyclohexanesulfonamide] |  |  | < 25% | > 75% | 
CCOC(=O)CO[C@H]1CC[C@H](C(C)(C)NC[C@H](O)c2cccc(F)c2)CC1 [Compound 398, ethyl[[(1R,4r)-4-{1-[(R)-2-(m-fluorophenyl)-2-hydroxyethylamino]-1-methylethyl}cyclohexyloxy]]acetate] |  |  | < 25% | > 75% | 
CC(C)(NC[C@H](O)c1cccc(F)c1)[C@H]1CC[C@H](OCc2ccccc2)CC1 [Compound 279, (R)-1-(m-fluorophenyl)-2-{1-methyl-1-[(1r,4R)-4-(benzyloxy)cyclohexyl]ethylamino}-1-ethanol] |  |  | < 25% | 50 to 75% | 
O[C@H](c1cncc(F)c1)C12CCC(C/C=C/c3ccccc3)(CC1)N2 [Compound 530, (R)-{4-[(E)-3-phenyl-2-propenyl]-7-azabicyclo[[2.2.1]]hept-1-yl}(5-fluoro-3-pyridyl)methanol] |  |  | 25 to 50% | > 75% | 
CC(C)(C)NCC(O)c1ccncc1O (centres unmarked) [Compound 134, 4-[2-(tert-butylamino)-1-hydroxyethyl]-3-pyridinol] | < 25% | > 75% |  |  | 
CC(C)(CC[C@H]1CC[C@@H](O)CC1)NC[C@H](O)c1ccccc1F [Compound 320, (R)-2-{1,1-dimethyl-3-[(1s,4R)-4-hydroxycyclohexyl]propylamino}-1-(o-fluorophenyl)-1-ethanol] |  |  | 25 to 50% | > 75% | 
CCC[C@H]1CCC[C@H]([C@H](O)c2cncc(F)c2)N1 [Compound 140] | < 25% | < 25% |  |  | 
O[C@@H](CNCCC[C@H]1CC[C@H](O)CC1)c1cccc(F)c1 [Compound 303, (R)-1-(m-fluorophenyl)-2-{3-[(1r,4S)-4-hydroxycyclohexyl]propylamino}-1-ethanol] |  |  | < 25% | 50 to 75% | 
O[C@@H](CNC[C@H]1CC[C@@H](OCc2ccccc2)CC1)c1cccc(F)c1 [Compound 262, (R)-1-(m-fluorophenyl)-2-({[(1s,4S)-4-(benzyloxy)cyclohexyl]methyl}amino)-1-ethanol] |  |  | < 25% | 25 to 50% | 
CS(=O)(=O)N(Cc1ccccc1)c1ccc(CC23CCC([C@@H](O)c4cccc(F)c4)(CC2)N3)cc1 [Compound 472, (S)-[4-({p-[(benzyl)-N-mesylamino]phenyl}methyl)-7-azabicyclo[[2.2.1]]hept-1-yl](m-fluorophenyl)methanol] |  |  | < 25% | 25 to 50% | 
CCC[C@@H]1CCCC[C@H]([C@@H](O)c2cncc(F)c2)N1 [Compound 218, (S)-[(2R,7R)-7-propyl-2-azepanyl](5-fluoro-3-pyridyl)methanol] |  |  | < 25% | < 25% | 
CC(C)(C[C@H]1CC[C@H](S(N)(=O)=O)CC1)NC[C@H](O)c1cncc(F)c1 [Compound 518, (1R,4r)-4-{2-[(R)-2-(5-fluoro-3-pyridyl)-2-hydroxyethylamino]-2-methylpropyl} cyclohexanesulfonamide] |  |  | < 25% | 50 to 75% | 
CCCC(C)NCC(O)c1ccc(O)cc1 (centres unmarked) [Compound 8, 1-(p-hydroxyphenyl)-2-(1-methylbutylamino)-1-ethanol] | 25 to 50% | 50 to 75% |  |  | 
CCC[C@@H]1CC[C@H]([C@H](O)c2cccc(Cl)c2)N1 [Compound 141, (R)-[(2R,5R)-5-propyl-2-pyrrolidinyl](m-chlorophenyl)methanol] | < 25% | 50 to 75% |  |  | 
Cc1c(F)cccc1[C@@H](O)CNC(C)(C)C [Compound 150, (R)-2-(tert-butylamino)-1-(3-fluoro-2-tolyl)-1-ethanol] | 25 to 50% | > 75% |  |  | 
CC1(C)CC[C@@H]([C@@H](O)c2cccc(F)c2)N1 [Compound 145, (S)-[(S)-5,5-dimethyl-2-pyrrolidinyl](m-fluorophenyl)methanol] | < 25% | 25 to 50% |  |  | 
Cc1ncccc1[C@@H](O)CNC(C)(C)C[C@H]1CC[C@@H](NS(C)(=O)=O)CC1 [Compound 437, (R)-2-{1,1-dimethyl-2-[(1s,4S)-4-(mesylamino)cyclohexyl]ethylamino}-1-(2-methyl-3-pyridyl)-1-ethanol] |  |  | < 25% | 25 to 50% | 
